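Cells were grown in 96-well plates and exposed to each compound for 48 hours at five concentrations; endpoints were interpolated linearly between bracketing concentrations, or set to the highest concentration if not reached. GI50: concentration for 50% inhibition of growth. TGI: concentration producing complete growth inhibition.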
Experiments:
Assay in all cases: DTP human tumour cell line panel, 48 h
ACHN renal = system: ACHN renal
DU-145 prostate = system: DU-145 prostate
HL-60(TB) leukemia = system: HL-60(TB) leukemia
M14 melanoma = system: M14 melanoma
MDA-MB-231 breast = system: MDA-MB-231 breast
SNB-19 CNS = system: SNB-19 CNS
T-47D breast = system: T-47D breast
UACC-62 melanoma = system: UACC-62 melanoma

Row | SMILES | GI50 (ACHN renal) | TGI (ACHN renal) | GI50 (DU-145 prostate) | TGI (DU-145 prostate) | GI50 (HL-60(TB) leukemia) | TGI (HL-60(TB) leukemia) | GI50 (M14 melanoma) | TGI (M14 melanoma) | GI50 (MDA-MB-231 breast) | TGI (MDA-MB-231 breast) | GI50 (SNB-19 CNS) | TGI (SNB-19 CNS) | GI50 (T-47D breast) | TGI (T-47D breast) | GI50 (UACC-62 melanoma) | TGI (UACC-62 melanoma)
1 | COc1ccc(NC(=O)c2cccc(C3CCc4c(cc(OC)c(OC)c4OC)O3)c2)cc1 (stereo not drawn) | 4280 nM | > 100000 nM | 2930 nM | > 100000 nM | 1250 nM | > 100000 nM | 2600 nM | > 100000 nM | 4130 nM | > 100000 nM | 4160 nM | > 100000 nM | 2490 nM | 7480 nM | 2050 nM | > 100000 nM
2 | CCCCC[C@H]1C/C=C2/C(=O)C(Cl)=C[C@@H]2C/C=C\CCCC(=O)O1 | 361 nM | 704 nM | 638 nM | 2510 nM | 565 nM | 2720 nM | 422 nM | 999 nM | 642 nM | 2240 nM | 590 nM | 2680 nM | 554 nM | 2080 nM | 411 nM | 1000 nM
3 | OCC1OC(n2cnc3c(NCc4ccccc4O)ncnc32)C(O)C1O (stereo not drawn) | 327 nM | > 44400 nM | 224 nM | > 32000 nM | 228 nM | 920 nM | 756 nM | 11800 nM | 76.9 nM | 3280 nM | 1390 nM | > 100000 nM | 345 nM | 4870 nM | 1270 nM | 24200 nM

— PubChem BioAssay (NCI)
